# Assay: Release (dissolution) profile of capsules, USP Apparatus 2 (paddle)
# Type: physicochemical
# Text: USP Apparatus 2 (Paddle Apparatus) is described, for example, in the United States Pharmacopeial Convention, Feb. 1, 2012, Chapter <711> (“Dissolution”), incorporated by reference herein in its entirety. See http://www.usp.org/sites/default/files/usp_pdf/EN/USPNF/revisions/m99470-gc_711.pdf. The assembly from Apparatus 1 is used, except that a paddle formed from a blade and a shaft is used as the stirring element. The shaft is positioned so that its axis is not more than 2 mm from the vertical axis of the vessel at any point and rotates smoothly without significant wobble that could affect the results. The vertical center line of the blade passes through the axis of the shaft so that the bottom of the blade is flush with the bottom of the shaft. A distance of 25±2 mm between the bottom of the blade and the inside bottom of the vessel is maintained during the test. The metallic or suitably inert, rigid blade and shaft comprise a single entity. A suitable two-part detachable design may be used provided the assembly remains firmly engaged during the test. The paddle blade and shaft may be coated with a suitable coating so as to make them inert. The dosage unit is allowed to sink to the bottom of the vessel before rotation of the blade is started. A small, loose piece of nonreactive material, such as not more than a few turns of wire helix, may be attached to dosage units that would otherwise float. Other validated sinker devices may be used.
# Unless otherwise specified, the release profiles for capsules were measured using USP Apparatus 2 (paddle).
# All release profiles disclosed in Tables 3c-3p were measured with USP Apparatus 2 (paddle) at 50 rpm in 500 mL of aqueous sodium phosphate at a concentration of 0.05 M (pH=6.8). The values in a given table relate to capsules obtained from the same batch. Values shown represent mean values over a number of dissolution tests (“n” in each table) in each case.
smiles,measurement,setting,value
"O=C(O)COC[C@H]1CC[C@H](COC(=O)N(c2ccccc2)c2ccc(Cl)cc2)CC1 [Compound 1, 2-(((1r,4r)-4-(((4-chlorophenyl)(phenyl)carbamoyloxy)methyl)cyclohexyl)methoxy)acetic acid]",mean value (n = 4) of % of Compound 1 released,"Table 3p: size 4 capsule, 0.5 mg Compound 1, Poloxamer 188:food grade GMS 30:70, 735 min",96.1%
same,mean value (n = 4) of % of Compound 1 released,"Table 3q: size 4 capsule, 0.5 mg Compound 1, Poloxamer 188:food grade GMS 30:70, 30 min",6.2%
same,mean value (n = 4) of % of Compound 1 released,"Table 3q: size 4 capsule, 0.5 mg Compound 1, Poloxamer 188:food grade GMS 30:70, 60 min",13.7%
same,mean value (n = 4) of % of Compound 1 released,"Table 3q: size 4 capsule, 0.5 mg Compound 1, Poloxamer 188:food grade GMS 30:70, 120 min",27.3%
same,mean value (n = 4) of % of Compound 1 released,"Table 3q: size 4 capsule, 0.5 mg Compound 1, Poloxamer 188:food grade GMS 30:70, 180 min",40.3%
same,mean value (n = 4) of % of Compound 1 released,"Table 3q: size 4 capsule, 0.5 mg Compound 1, Poloxamer 188:food grade GMS 30:70, 240 min",52.5%
same,mean value (n = 4) of % of Compound 1 released,"Table 3q: size 4 capsule, 0.5 mg Compound 1, Poloxamer 188:food grade GMS 30:70, 360 min",74.2%
same,mean value (n = 4) of % of Compound 1 released,"Table 3q: size 4 capsule, 0.5 mg Compound 1, Poloxamer 188:food grade GMS 30:70, 480 min",85.5%
same,mean value (n = 4) of % of Compound 1 released,"Table 3q: size 4 capsule, 0.5 mg Compound 1, Poloxamer 188:food grade GMS 30:70, 600 min",91.5%
same,mean value (n = 4) of % of Compound 1 released,"Table 3q: size 4 capsule, 0.5 mg Compound 1, Poloxamer 188:food grade GMS 30:70, 720 min",93.4%
same,mean value (n = 4) of % of Compound 1 released,"Table 3q: size 4 capsule, 0.5 mg Compound 1, Poloxamer 188:food grade GMS 30:70, 735 min",94.5%
same,mean value (n = 6) of % of Compound 1 released,"Table 3r: size 4 capsule, 0.03 mg Compound 1, Poloxamer 188:food grade GMS 30:70, 60 min",11%
same,mean value (n = 6) of % of Compound 1 released,"Table 3r: size 4 capsule, 0.03 mg Compound 1, Poloxamer 188:food grade GMS 30:70, 120 min",23%
same,mean value (n = 6) of % of Compound 1 released,"Table 3r: size 4 capsule, 0.03 mg Compound 1, Poloxamer 188:food grade GMS 30:70, 180 min",33%
same,mean value (n = 6) of % of Compound 1 released,"Table 3r: size 4 capsule, 0.03 mg Compound 1, Poloxamer 188:food grade GMS 30:70, 240 min",43%
same,mean value (n = 6) of % of Compound 1 released,"Table 3r: size 4 capsule, 0.03 mg Compound 1, Poloxamer 188:food grade GMS 30:70, 360 min",62%
same,mean value (n = 6) of % of Compound 1 released,"Table 3r: size 4 capsule, 0.03 mg Compound 1, Poloxamer 188:food grade GMS 30:70, 480 min",77%
same,mean value (n = 6) of % of Compound 1 released,"Table 3r: size 4 capsule, 0.03 mg Compound 1, Poloxamer 188:food grade GMS 30:70, 600 min",87%
same,mean value (n = 6) of % of Compound 1 released,"Table 3r: size 4 capsule, 0.03 mg Compound 1, Poloxamer 188:food grade GMS 30:70, 720 min",91%
same,mean value (n = 6) of % of Compound 1 released,"Table 3r: size 4 capsule, 0.03 mg Compound 1, Poloxamer 188:food grade GMS 30:70, 840 min",95%
same,mean value (n = 6) of % of Compound 1 released,"Table 3s-1: Storage time = 0, size 4 capsule, 0.03 mg Compound 1, Poloxamer 188:food grade GMS 30:70, 60 min",16.7%
same,mean value (n = 6) of % of Compound 1 released,"Table 3s-1: Storage time = 0, size 4 capsule, 0.03 mg Compound 1, Poloxamer 188:food grade GMS 30:70, 120 min",27.5%
same,mean value (n = 6) of % of Compound 1 released,"Table 3s-1: Storage time = 0, size 4 capsule, 0.03 mg Compound 1, Poloxamer 188:food grade GMS 30:70, 180 min",38.3%
same,mean value (n = 6) of % of Compound 1 released,"Table 3s-1: Storage time = 0, size 4 capsule, 0.03 mg Compound 1, Poloxamer 188:food grade GMS 30:70, 240 min",50.3%
same,mean value (n = 6) of % of Compound 1 released,"Table 3s-1: Storage time = 0, size 4 capsule, 0.03 mg Compound 1, Poloxamer 188:food grade GMS 30:70, 360 min",72.3%
same,mean value (n = 6) of % of Compound 1 released,"Table 3s-1: Storage time = 0, size 4 capsule, 0.03 mg Compound 1, Poloxamer 188:food grade GMS 30:70, 480 min",88.7%
same,mean value (n = 6) of % of Compound 1 released,"Table 3s-1: Storage time = 0, size 4 capsule, 0.03 mg Compound 1, Poloxamer 188:food grade GMS 30:70, 600 min",96.0%
same,mean value (n = 6) of % of Compound 1 released,"Table 3s-2: Storage time = 2 weeks, size 4 capsule, 0.03 mg Compound 1, Poloxamer 188:food grade GMS 30:70, 60 min",16.0%
same,mean value (n = 6) of % of Compound 1 released,"Table 3s-2: Storage time = 2 weeks, size 4 capsule, 0.03 mg Compound 1, Poloxamer 188:food grade GMS 30:70, 120 min",27.7%
same,mean value (n = 6) of % of Compound 1 released,"Table 3s-2: Storage time = 2 weeks, size 4 capsule, 0.03 mg Compound 1, Poloxamer 188:food grade GMS 30:70, 180 min",39.7%
same,mean value (n = 6) of % of Compound 1 released,"Table 3s-2: Storage time = 2 weeks, size 4 capsule, 0.03 mg Compound 1, Poloxamer 188:food grade GMS 30:70, 240 min",52.2%
same,mean value (n = 6) of % of Compound 1 released,"Table 3s-2: Storage time = 2 weeks, size 4 capsule, 0.03 mg Compound 1, Poloxamer 188:food grade GMS 30:70, 360 min",74.6%
same,mean value (n = 6) of % of Compound 1 released,"Table 3s-2: Storage time = 2 weeks, size 4 capsule, 0.03 mg Compound 1, Poloxamer 188:food grade GMS 30:70, 480 min",89.4%
same,mean value (n = 6) of % of Compound 1 released,"Table 3s-2: Storage time = 2 weeks, size 4 capsule, 0.03 mg Compound 1, Poloxamer 188:food grade GMS 30:70, 600 min",96.7%
same,mean value (n = 6) of % of Compound 1 released,"Table 3h: size 4 capsule, 0.03 mg Compound 1, Poloxamer 188:food grade GMS 50:50, 60 min",17.9%
same,mean value (n = 6) of % of Compound 1 released,"Table 3h: size 4 capsule, 0.03 mg Compound 1, Poloxamer 188:food grade GMS 50:50, 120 min",35.9%
same,mean value (n = 6) of % of Compound 1 released,"Table 3h: size 4 capsule, 0.03 mg Compound 1, Poloxamer 188:food grade GMS 50:50, 180 min",51.7%
same,mean value (n = 6) of % of Compound 1 released,"Table 3h: size 4 capsule, 0.03 mg Compound 1, Poloxamer 188:food grade GMS 50:50, 240 min",67.9%
same,mean value (n = 6) of % of Compound 1 released,"Table 3h: size 4 capsule, 0.03 mg Compound 1, Poloxamer 188:food grade GMS 50:50, 300 min",83.6%
same,mean value (n = 6) of % of Compound 1 released,"Table 3h: size 4 capsule, 0.03 mg Compound 1, Poloxamer 188:food grade GMS 50:50, 360 min",92.3%
same,mean value (n = 6) of % of Compound 1 released,"Table 3h: size 4 capsule, 0.03 mg Compound 1, Poloxamer 188:food grade GMS 50:50, 480 min",98.1%
same,mean value (n = 4) of % of Compound 1 released,"Table 3d: size 4 capsule, 0.5 mg Compound 1, Poloxamer 188:food grade GMS 70:30, 30 min",13.8%
same,mean value (n = 4) of % of Compound 1 released,"Table 3d: size 4 capsule, 0.5 mg Compound 1, Poloxamer 188:food grade GMS 70:30, 60 min",60.2%
same,mean value (n = 4) of % of Compound 1 released,"Table 3d: size 4 capsule, 0.5 mg Compound 1, Poloxamer 188:food grade GMS 70:30, 120 min",92.1%
same,release rate relative to immediate release composition,"capsule, Gelucire 50/13:Kolliphor RH40 50:50 (FIG. 3)",substantially reduced
same,change of release rate after storage,"capsule, Gelucire 50/13:Kolliphor RH40 75:25, storage at 40° C. and 75% RH over time (FIG. 4)",significantly increased
same,"release rate, 90:10 ratio relative to 80:20 ratio","capsule, Gelucire 50/13:Kolliphor RH40 90:10 vs 80:20 (FIG. 3)",further reduced
same,effect of curing in stabilizing the release profile,research grade GMS (lower monoester content) instead of food grade GMS,not as effective
